Experimental data from PubChem BioAssay AID2060484 (Molecular Pharmacology Branch, DTP, NCI, 2025).

System: SUM149PT spheroids with HUVEC/MSC, viability
Test: Anticancer human tumor SUM149PT cell line growth inhibition [GQUAD];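 also: spheroids exposed to drugs for seven days before readout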;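 as to viability, T/C: percent viability relative to DMSO vehicle control taken as 100%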
Conditions: for IC50: curve of first compound; for viability, T/C: stronger effect = lower value
How it was run: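 Viability of tumor cells grown as complex spheroids with endothelial and stromal cells, exposed to drug combinations. Top concentration at or near clinical Cmax (else 10 microM), diluted in half-log increments.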

[1] = second compound 0.0316 µM, first compound 0.0316 µM
[2] = second compound 0.0316 µM, first compound 0.316 µM
[3] = second compound 0.1 µM, first compound 0.0316 µM
[4] = second compound 0.1 µM, first compound 0.316 µM
[5] = second compound 0.316 µM, first compound 0.0316 µM
[6] = second compound 0.316 µM, first compound 0.316 µM
[7] = second compound 1 µM, first compound 0.0316 µM
[8] = second compound 1 µM, first compound 0.316 µM
[9] = second compound 3.16 µM, first compound 0.0316 µM
[10] = second compound 3.16 µM, first compound 0.316 µM
[11] = second compound 10 µM, first compound 0.0316 µM
[12] = second compound 10 µM, first compound 0.316 µM
[13] = second compound 0.0316 µM, first compound 0.000999 µM
[14] = second compound 0.0316 µM, first compound 0.00316 µM
[15] = second compound 0.0316 µM, first compound 0.00999 µM
[16] = second compound 0.0316 µM, first compound 0.0999 µM
[17] = second compound 0.1 µM, first compound 0.000999 µM
[18] = second compound 0.1 µM, first compound 0.00316 µM
[19] = second compound 0.1 µM, first compound 0.00999 µM
[20] = second compound 0.1 µM, first compound 0.0999 µM
[21] = second compound 0.316 µM, first compound 0.000999 µM
[22] = second compound 0.316 µM, first compound 0.00316 µM
[23] = second compound 0.316 µM, first compound 0.00999 µM
[24] = second compound 0.316 µM, first compound 0.0999 µM
[25] = second compound 1 µM, first compound 0.000999 µM
[26] = second compound 1 µM, first compound 0.00316 µM
[27] = second compound 1 µM, first compound 0.00999 µM
[28] = second compound 1 µM, first compound 0.0999 µM
[29] = second compound 3.16 µM, first compound 0.000999 µM
[30] = second compound 3.16 µM, first compound 0.00316 µM
[31] = second compound 3.16 µM, first compound 0.00999 µM
[32] = second compound 3.16 µM, first compound 0.0999 µM
[33] = second compound 10 µM, first compound 0.000999 µM
[34] = second compound 10 µM, first compound 0.00316 µM
[35] = second compound 10 µM, first compound 0.00999 µM
[36] = second compound 10 µM, first compound 0.0999 µM

COc1ncnc(C2CC2)c1-c1ncc2cnn(Cc3ccc(-c4nc(C(F)(F)F)cn4C(C)C)cc3)c2n1 + Cc1cnc(CNC(=O)c2c(=O)c3ccc(N4CCCN(C)CC4)nc3n3c2sc2ccccc23)cn1
IC50 (second compound 0.0316 µM): > 10 µM
IC50 (second compound 0.1 µM): 0.0316 µM
IC50 (second compound 0.316 µM): < 0.0316 µM
IC50 (second compound 1 µM): < 0.0316 µM
IC50 (second compound 3.16 µM): < 0.0316 µM
IC50 (second compound 10 µM): < 0.0316 µM
viability, T/C [1]: 87.3%
viability, T/C (second compound 0.0316 µM, first compound 0.1 µM): 63.3%
viability, T/C [2]: 62.1%
viability, T/C (second compound 0.0316 µM, first compound 1 µM): 61.9%
viability, T/C (second compound 0.0316 µM, first compound 3.16 µM): 70.5%
viability, T/C (second compound 0.0316 µM, first compound 10 µM): 81.5%
viability, T/C [3]: 55.3%
viability, T/C (second compound 0.1 µM, first compound 0.1 µM): 57.5%
viability, T/C [4]: 45.2%
viability, T/C (second compound 0.1 µM, first compound 1 µM): 48.1%
viability, T/C (second compound 0.1 µM, first compound 3.16 µM): 57.1%
viability, T/C (second compound 0.1 µM, first compound 10 µM): 62.7%
viability, T/C [5]: 45.1%
viability, T/C (second compound 0.316 µM, first compound 0.1 µM): 50.3%
viability, T/C [6]: 45.6%
viability, T/C (second compound 0.316 µM, first compound 1 µM): 43.1%
viability, T/C (second compound 0.316 µM, first compound 3.16 µM): 48.1%
viability, T/C (second compound 0.316 µM, first compound 10 µM): 56.1%
viability, T/C [7]: 37.4%
viability, T/C (second compound 1 µM, first compound 0.1 µM): 38.4%
viability, T/C [8]: 47.1%
viability, T/C (second compound 1 µM, first compound 1 µM): 41.4%
viability, T/C (second compound 1 µM, first compound 3.16 µM): 40%
viability, T/C (second compound 1 µM, first compound 10 µM): 49.4%
viability, T/C [9]: 35%
viability, T/C (second compound 3.16 µM, first compound 0.1 µM): 32.9%
viability, T/C [10]: 34.1%
viability, T/C (second compound 3.16 µM, first compound 1 µM): 33.5%
viability, T/C (second compound 3.16 µM, first compound 3.16 µM): 40%
viability, T/C (second compound 3.16 µM, first compound 10 µM): 39.1%
viability, T/C [11]: 0.16%
viability, T/C (second compound 10 µM, first compound 0.1 µM): 11.9%
viability, T/C [12]: 27.6%
viability, T/C (second compound 10 µM, first compound 1 µM): 11%
viability, T/C (second compound 10 µM, first compound 3.16 µM): 3.43%
viability, T/C (second compound 10 µM, first compound 10 µM): 1.12%

Cn1ncnc1[C@H]1c2n[nH]c(=O)c3cc(F)cc(c23)N[C@@H]1c1ccc(F)cc1 + Cc1[nH]c2ccc(F)cc2c1-c1nc2c3cccnc3c3ncccc3c2[nH]1
IC50 (second compound 0.0316 µM): > 0.316 µM
IC50 (second compound 0.1 µM): > 0.316 µM
IC50 (second compound 0.316 µM): 0.305 µM
IC50 (second compound 1 µM): > 0.316 µM
IC50 (second compound 3.16 µM): > 0.316 µM
IC50 (second compound 10 µM): > 0.316 µM
viability, T/C [13]: 105%
viability, T/C [14]: 93.4%
viability, T/C [15]: 103%
viability, T/C [1]: 88%
viability, T/C [16]: 69.8%
viability, T/C [2]: 57.3%
viability, T/C [17]: 90.4%
viability, T/C [18]: 96.2%
viability, T/C [19]: 87.6%
viability, T/C [3]: 86.9%
viability, T/C [20]: 73.2%
viability, T/C [4]: 56.7%
viability, T/C [21]: 109%
viability, T/C [22]: 90.3%
viability, T/C [23]: 95.2%
viability, T/C [5]: 89.8%
viability, T/C [24]: 65.4%
viability, T/C [6]: 50%
viability, T/C [25]: 94.6%
viability, T/C [26]: 94.5%
viability, T/C [27]: 96.3%
viability, T/C [7]: 88%
viability, T/C [28]: 66%
viability, T/C [8]: 51%
viability, T/C [29]: 88.6%
viability, T/C [30]: 90.4%
viability, T/C [31]: 96.2%
viability, T/C [9]: 78%
viability, T/C [32]: 67.7%
viability, T/C [10]: 50%
viability, T/C [33]: 85.3%
viability, T/C [34]: 77.7%
viability, T/C [35]: 88.8%
viability, T/C [11]: 81.8%
viability, T/C [36]: 65.4%
viability, T/C [12]: 50.9%

CCc1c2c(nc3ccc(O)cc13)-c1cc3c(c(=O)n1C2)COC(=O)[C@]3(O)CC + Cc1[nH]c2ccc(F)cc2c1-c1nc2c3cccnc3c3ncccc3c2[nH]1
IC50 (second compound 0.0316 µM): 0.00234 µM
IC50 (second compound 0.1 µM): 0.00258 µM
IC50 (second compound 0.316 µM): 0.00188 µM
IC50 (second compound 1 µM): 0.0023 µM
IC50 (second compound 3.16 µM): 0.00154 µM
IC50 (second compound 10 µM): < 0.000999 µM
viability, T/C [13]: 67.2%
viability, T/C [14]: 34.9%
viability, T/C [15]: 43.4%
viability, T/C [1]: 34.7%
viability, T/C [16]: 32.4%
viability, T/C [2]: 18.2%
viability, T/C [17]: 69.1%
viability, T/C [18]: 32.6%
viability, T/C [19]: 45.4%
viability, T/C [3]: 34.2%
viability, T/C [20]: 27.8%
viability, T/C [4]: 16.8%
viability, T/C [21]: 61.4%
viability, T/C [22]: 33.3%
viability, T/C [23]: 37.8%
viability, T/C [5]: 38.2%
viability, T/C [24]: 27.2%
viability, T/C [6]: 15.7%
viability, T/C [25]: 65.9%
viability, T/C [26]: 35.5%
viability, T/C [27]: 38.1%
viability, T/C [7]: 40.8%
viability, T/C [28]: 25.5%
viability, T/C [8]: 18.4%
viability, T/C [29]: 59.7%
viability, T/C [30]: 34.1%
viability, T/C [31]: 38.7%
viability, T/C [9]: 39.7%
viability, T/C [32]: 27.6%
viability, T/C [10]: 15.7%
viability, T/C [33]: 56.5%
viability, T/C [34]: 31.1%
viability, T/C [35]: 36.3%
viability, T/C [11]: 39%
viability, T/C [36]: 25.3%
viability, T/C [12]: 15.8%
